From patent EP0059645A1, “Method and kit for identification of beta-lactamases” (NATIONAL RESEARCH DEVELOPMENT CORPORATION, priority 1981, dated 1982) come the findings set out here.

What all share (test): Competitive assay with nitrocefin (RSAI)
One assay has as its system HMS-1. The assay is classed as biochemical, E. coli 1946.
The next assay concerns K1073. The assay is classed as biochemical, Klebsiella 1073. An excerpt:
(§1) It is convenient to express the results in terms of a Relative Substrate Affinity Index (RSAI) value.
(§2) RSAI = Concentration of competing substrate which gives 50% inhibition of ring-opening hydrolysis of the chromogenic substrate
(§3) Concentration of chromogenic substrate in the assay A high RSAI value therefore indicates a low affinity of the beta-lactamase for that competing substrate, and therefore predicts resistance of a beta-lactam competing substrate to hydrolysis by the beta-lactamase. Low RSAI values, in contrast, predict sensitivity to hydrolysis by a beta-lactamase.
(§4) Beta-lactam antibiotics which bind to the TEM-2 enzyme compete with nitrocefin in the assay. […] . This concentration of ampicillin is a direct estimate of the relative affinity of the TEM-2 enzyme for ampicillin. […] . The RSAI value was therefore 1.3.

The test system of the next assay is K17. The class given is biochemical, Klebsiella 17.
Source text: as §1, §2, §3, §4

A further assay has as its target OXA-1 (Escherichia coli, UniProt P13661). The class given is biochemical, E. coli 1527E. More on the design: the beta-lactamase has to be extracted from the cells for the purpose of the present invention; made in house; host or cells: E. coli 1527E according to the earlier reading (crude cell extract).
The target in the next assay is PSE-1 (Pseudomonas aeruginosa, UniProt Q03170). The assay is classed as biochemical, Ps.aerug. 1937E. More on the design: Normally, therefore, the beta-lactamase has to be extracted from the cells for the purpose of the present invention; endogenous in cells.
Another assay relates to K10317. The assay is classed as biochemical, K.aerog. 10317.
Source text: as §1, §2, §3, §4

Assay [1] concerns the target T1, Chromosomal, induced beta-lactamase enzyme (Pseudomonas aeruginosa, UniProt P24735).
T1 construct: Normally, therefore, the beta-lactamase has to be extracted from the cells for the purpose of the present invention; endogenous in cells; host or cells: Pseudomonas aeruginosa 1937E grown with ampicillin
The assay is classed as biochemical, Ps.aerug. 1937E + ampicillin.

The next assay deals with OXA-3 (Pseudomonas aeruginosa, UniProt Q51429). The class given is biochemical, E. coli R57B. Also on record: Normally, therefore, the beta-lactamase has to be extracted from the cells for the purpose of the present invention; endogenous in cells.
For a further assay, the target named is SHV-1 (Escherichia coli, UniProt P0AD63). The assay is classed as biochemical, E. coli 2008E. Also on record: the beta-lactamase has to be extracted from the cells for the purpose of the present invention; made in house; host or cells: E. coli 2008E (crude cell extract).
The target of a further assay is TEM-2 (Escherichia coli, UniProt P62593, Q37K). The class given is biochemical, E. coli 1725E.
Source text: as §1, §2, §3, §4

The target of assay [2] is Chromosomal, hyper-induced beta-lactamase enzyme (Escherichia coli, UniProt P00811). The assay is classed as biochemical, E. coli SNU35. Also on record: Normally, therefore, the beta-lactamase has to be extracted from the cells for the purpose of the present invention; endogenous in cells; host or cells: E. coli SNU 35 (artificially produced strain).
Another assay has as its target PSE-2 (Pseudomonas aeruginosa, UniProt P14489). The assay is classed as biochemical, Ps.aerug. 1973E. Also on record: Normally, therefore, the beta-lactamase has to be extracted from the cells for the purpose of the present invention; endogenous in cells.
The subject of another assay is PSE-3. The class given is biochemical, Ps.aerug. 1920E.
Another assay addresses TEM-1 (Escherichia coli, UniProt P62593). The assay is classed as biochemical, E. coli 2136E. Also on record: the beta-lactamase has to be extracted from the cells for the purpose of the present invention; made in house; host or cells: E. coli 2136E (plasmid-bearing strain; crude cell extract).
For assay [3], the target named is T2, Chromosomal, constitutive beta-lactamase enzyme (Enterobacter cloacae, UniProt P05364).
T2 construct: Normally, therefore, the beta-lactamase has to be extracted from the cells for the purpose of the present invention; endogenous in cells
The class given is biochemical, E. cloacae.

In the next assay the target is OXA-2 (Escherichia coli, UniProt P0A1V9). The class given is biochemical, E. coli R46. More on the design: the beta-lactamase has to be extracted from the cells for the purpose of the present invention; made in house; host or cells: E. coli carrying R46 according to the earlier reading (crude cell extract).
The target of another assay is PSE-4 (Pseudomonas aeruginosa, UniProt P16897). The assay is classed as biochemical, Ps.aerug. 1559E. Also on record: Normally, therefore, the beta-lactamase has to be extracted from the cells for the purpose of the present invention; endogenous in cells.

Marks after values point to notes of the source that are not given here.

Consider `CC1(C)S[C@@H]2[C@H](NC(=O)C(C(=O)O)c3ccccc3)C(=O)N2[C@H]1C(=O)O` (stereo partly shown) [Carbeni-cillin, carbenicillin], for which the RSAI in the assay with HMS-1 is 0.09; with K1073, 0.5; in the assay with K17 it was 0.4; at OXA-1 it was 0.5; on PSE-1, 1.4; in the assay on K10317, 0.7. Besides, the RSAI is listed as 0.008 in assay [1]; 12 at OXA-3; 0.5 at SHV-1; 0.4 at TEM-2; 0.00005* in assay [2]; 5.5 at PSE-2. The RSAI in the assay with PSE-3 is reported as 1.35; at TEM-1 it was 0.6; in [3] it was 0.0003*; at OXA-2, 15; at PSE-4 it was 3.

In the case of `CC1(C)[C@H](C(=O)O)N2C(=O)C[C@H]2S1(=O)=O` [CP 45,899], the RSAI in the assay with HMS-1 is 0.025*; in the assay on K1073, 0.18; in the assay on K17, 0.5; on OXA-1 it was 8*; at PSE-1, 0.036; in the assay with K10317 it was 0.08. The RSAI is listed as 2.5* in [1]; 0.05* on OXA-3; 0.018* at SHV-1; 0.04* on TEM-2; 1.7* in assay [2]; 16 on PSE-2. The RSAI is reported as 0.0014 with PSE-3; 0.02 on TEM-1; 6.5* in [3]; 0.15* at OXA-2; 0.015* at PSE-4.

For the molecule `CC1=C(C(=O)O)N2C(=O)[C@@H](NC(=O)[C@H](N)C3=CCC=CC3)[C@H]2SC1` [Cephra-dine, cephradine], the RSAI came to 25 with HMS-1; 25 with K1073; 10.4 with K17; 420 at OXA-1; 46 at PSE-1; 18 in the assay on K10317. Also, the RSAI in assay [1] worked out at 1; at OXA-3 it was 100; on SHV-1 it was 15; on TEM-2 it was 50; in assay [2], 0.12; on PSE-2, 4.2. The RSAI with PSE-3 turned out to be 3.6; on TEM-1, 35; in assay [3] it was 1.8; on OXA-2, 86; at PSE-4 it was 80.

With `CO/N=C(\C(=O)N[C@@H]1C(=O)N2C(C(=O)O)=CCS[C@H]12)c1csc(N)n1` [Cefti-zoxime, ceftizoxime], the RSAI turned out to be 66 in the assay with HMS-1; 720 with K1073; 220 with K17; 50 on OXA-1; 360 at PSE-1; 630 in the assay with K10317. Also, the RSAI in assay [1] was determined as 500; on OXA-3 it was 200; at SHV-1, 1400; at TEM-2, 1000; in assay [2], 1.7; on PSE-2, 128. The RSAI was 120 in the assay with PSE-3; 1000 on TEM-1; 0.1 in assay [3]; 110 at OXA-2; 380 on PSE-4.

Consider `CC1(C)S[C@@H]2[C@H](NC(=O)Cc3ccccc3)C(=O)N2[C@H]1C(=O)O` [Peni-cillin G, Penicillin G], for which the RSAI in the assay with HMS-1 is reported as 0.5; with K1073, 2; in the assay on K17 it was 1.2; at OXA-1, 0.2; on PSE-1, 0.6; with K10317, 2.2. In addition, the RSAI is listed as 0.13 in [1]; 0.4 on OXA-3; 1 at SHV-1; 1 at TEM-2; 0.18 in [2]; 0.2 on PSE-2. Also, the RSAI in the assay on PSE-3 was found to be 0.3; at TEM-1, 3; in assay [3], 0.08; on OXA-2, 0.6; on PSE-4, 0.48.

For the molecule `Cc1nnc(SCC2=C(C(=O)O)N3C(=O)[C@@H](NC(=O)Cn4cnnn4)[C@H]3SC2)s1` [Cephalo-zolin, Cephalozolin], the RSAI in the assay on HMS-1 is 0.8; with K1073, 16; in the assay with K17, 1; on OXA-1, 10; at PSE-1, 2; with K10317, 30. The RSAI came out at 15 in assay [1]; 3.4 at OXA-3; 15 on SHV-1; 48 on TEM-2; 46 in assay [2]; 1.4 on PSE-2. Further, the RSAI with PSE-3 was 3.2; at TEM-1 it was 30; in [3], 17; on OXA-2 it was 3.4; at PSE-4, 2.6.

Turning to `O=C(O)[C@H]1/C(=C/CO)O[C@@H]2CC(=O)N21` [Clavulanic acid], the RSAI in the assay on HMS-1 is on record as 0.006*; with K1073, 0.004*; in the assay on K17, 0.004*; on OXA-1 it was 0.02*; at PSE-1 it was 0.0001; in the assay with K10317, 0.004*. The RSAI in assay [1] is above 40; at OXA-3, 1.6*; on SHV-1, 0.006*; at TEM-2, 0.002*; in assay [2], 4; at PSE-2, 0.4. The RSAI is 0.014 in the assay with PSE-3; 0.003* on TEM-1; 50 in assay [3]; 0.9* at OXA-2; 0.004* on PSE-4. Also, the “nature of the binding to the enzyme” value on PSE-1 is reported as “reversibly”; at PSE-4, “irreversibly”.
